From patent US20140228366A1, “HETEROARYL-SUBSTITUTED PYRAZOLOPYRIDINES AND USE THEREOF AS SOLUBLE GUANYLATE CYCLASE STIMULATORS” (BAYER INTELLECTUAL PROPERTY GMBH, priority 2011, published 2014)

Assays:
[1] = Pharmacokinetic parameters following intravenous administration in rats; type: in vivo, male Wistar rats; settings: intravenous administration of 0.3 mg/kg; for MRT / half-life: male, Wistar, rat, plasma; for half-life: terminal half life
Procedure: The pharmacokinetic parameters of the compounds of the formula (I) according to the invention are determined in male CD-1 mice, male Wistar rats and/or female beagles. The administration volume is 5 ml/kg for mice, 5 ml/kg for rats and 0.5 ml/kg for dogs. Intravenous administration is via a formulation of species-specific plasma/DMSO (99/1) in the case of mice and rats and via water/PEG400/ethanol (50/40/10 or 30/60/10) in the case of dogs. The removal of blood from rats is simplified by inserting a silicone catheter into the right Vena jugularis externa prior to substance administration. The surgical intervention takes place one day prior to the experiment with isofluran anesthesia and administration of an analgetic (atropine/rimadyl (3/1) 0.1 ml s.c.). Substance administration is as i.v. bolus in the case of mice, as i.v. bolus or via a 15-minute infusion in the case of rats and via a 15-minute infusion in the case of dogs. Removal of blood is after 0.033, 0.083, 0.17, 0.5, 1, 2, 3, 4, 6, 7 and 24 hours in the case of mice and, after a 15-minute infusion, after 0.083, 0.25, 0.28, 0.33, 0.42, 0.75, 1, 2, 3, 4, 6, 7 (or 8 in the case of Example 3) and 24 hours in the case of dogs and rats and after an i.v. bolus administration, after 0.033, 0.083, 0.17, 0.5, 1, 2, 3, 4, 6, 7 and 24 hours in the case of rats. For all species, oral administration of the dissolved substance via gavage is carried out based on a water/PEG400/ethanol formulation (50/40/10). Here, the removal of blood from rats and dogs is after 0.083, 0.17, 0.5, 0.75, 1, 2, 3, 4, 6, 7 and 24 hours. The blood is removed into heparinized tubes. The blood plasma is then obtained by centrifugation; if required, it can be stored at −20° C. until further processing.
An internal standard (ZK 228859) is added to the samples of the compounds of the formula (I) according to the invention, calibration samples and QCs, and the protein is precipitated using excess acetonitrile. After addition of an ammonium acetate buffer (0.01 M, pH 6.8) and subsequent vortexing, the mixture is centrifuged at 1000 g and the supernatant is examined by LC-MS/MS (API 4000, AB Sciex). Chromatographic separation is carried out on an Agilent 1100-HPLC. The injection volume is 10 μl. The separation column used is a Phenomenex Luna 5μ C8(2) 100A 50×2 mm, adjusted to a temperature of 40° C. A binary mobile phase gradient at 500 μl/min is used (A: 0.01M ammonium acetate buffer pH 6.8, B: 0.1% formic acid in acetonitrile): 0 min (90% A), 1 min (90% A), 3 min (10% A), 4 min (10% A), 4.50 min (90% A), 6 min (90% A). The temperature of the Turbo V ion source is 500° C. (Example 2), 400° C. (Example 3) or 450° C. (Example 6). The following MS instrument parameters are used: curtain gas 15 units (Examples 2 and 3) or 10 units (Example 6), ion spray voltage 4.8 kV, gas 1 45 units (Example 2) or 50 units (Examples 3 and 6), gas 2 35 units (Examples 2 and 6) or 40 units (Example 3), CAD gas 4 units (Examples 2 and 6) or 8 units (Example 3). The substances are quantified by peak heights or areas using extracted ion chromatograms of specific MRM experiments.
The plasma concentration/time plots determined are used to calculate the pharmacokinetic parameters such as AUC, Cmax, t112 (terminal half life), MRT (mean residence time) and CL (clearance), using the validated pharmacokinetic calculation program KinEx (Vers. 3).
Since the substance quantification is performed in plasma, it is necessary to determine the blood/plasma distribution of the substance in order to be able to adjust the pharmacokinetic parameters correspondingly. For this purpose, a defined amount of substance is incubated in heparinized whole blood of the species in question in a rocking roller mixer for 20 min. After centrifugation at 1000 g, the plasma concentration is measured (see above) and determined by calculating the quotient of the Cblood/Cplasma values.

[2] = biological target: T1, recombinant guanylate cyclase reporter cell line (Rattus norvegicus, UniProt P19686+P20595); experiment: Effect on a recombinant guanylate cyclase reporter cell line; type: cell-based
T1 construct: expressed in transfected cells; host or cells: recombinant reporter cell line
T1 sequence (P19686 1-690): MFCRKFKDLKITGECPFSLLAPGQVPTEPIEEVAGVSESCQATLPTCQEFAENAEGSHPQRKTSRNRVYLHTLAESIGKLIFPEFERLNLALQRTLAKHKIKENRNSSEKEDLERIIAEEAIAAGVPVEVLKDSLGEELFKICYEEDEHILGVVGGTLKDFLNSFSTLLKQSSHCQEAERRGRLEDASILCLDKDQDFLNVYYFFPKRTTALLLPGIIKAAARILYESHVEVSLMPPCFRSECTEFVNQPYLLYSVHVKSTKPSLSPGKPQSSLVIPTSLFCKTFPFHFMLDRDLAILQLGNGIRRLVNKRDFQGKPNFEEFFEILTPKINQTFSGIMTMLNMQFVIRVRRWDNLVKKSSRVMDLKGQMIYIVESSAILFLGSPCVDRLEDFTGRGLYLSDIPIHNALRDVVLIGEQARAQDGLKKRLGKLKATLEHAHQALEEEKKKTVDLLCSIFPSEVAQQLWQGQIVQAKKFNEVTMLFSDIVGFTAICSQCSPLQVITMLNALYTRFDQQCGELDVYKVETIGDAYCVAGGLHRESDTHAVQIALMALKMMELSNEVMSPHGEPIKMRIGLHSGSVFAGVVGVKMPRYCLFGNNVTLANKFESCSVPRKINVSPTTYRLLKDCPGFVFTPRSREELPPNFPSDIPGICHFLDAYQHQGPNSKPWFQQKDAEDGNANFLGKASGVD
T1 sequence (P20595 1-619): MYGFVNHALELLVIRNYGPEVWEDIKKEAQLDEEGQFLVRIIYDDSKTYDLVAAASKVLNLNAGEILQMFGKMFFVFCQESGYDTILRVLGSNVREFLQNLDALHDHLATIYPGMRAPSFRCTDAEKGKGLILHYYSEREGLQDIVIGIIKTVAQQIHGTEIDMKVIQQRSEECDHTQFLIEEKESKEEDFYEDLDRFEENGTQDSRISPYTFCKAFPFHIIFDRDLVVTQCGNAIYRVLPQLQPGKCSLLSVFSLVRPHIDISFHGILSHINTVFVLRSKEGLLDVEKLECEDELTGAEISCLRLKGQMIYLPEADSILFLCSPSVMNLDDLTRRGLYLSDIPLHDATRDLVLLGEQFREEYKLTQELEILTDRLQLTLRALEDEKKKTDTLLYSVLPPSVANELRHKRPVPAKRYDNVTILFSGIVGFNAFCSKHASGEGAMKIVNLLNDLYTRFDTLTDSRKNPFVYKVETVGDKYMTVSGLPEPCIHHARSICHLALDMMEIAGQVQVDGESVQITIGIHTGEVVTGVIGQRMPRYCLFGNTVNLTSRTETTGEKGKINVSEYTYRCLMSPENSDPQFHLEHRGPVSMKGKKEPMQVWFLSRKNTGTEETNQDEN
Procedure: The cellular activity of the compounds according to the invention is determined using a recombinant guanylate cyclase reporter cell line, as described in F. Wunder et al., Anal. Biochem. 339, 104-112 (2005).

[3] = test system: rabbit aorta rings; experiment: Vasorelaxant effect in vitro (phenylephrine-contracted aorta rings); settings: Oryctolagus cuniculus, phenylephrine contraction, concentration reducing control contraction by 50%
Procedure: Rabbits are stunned by a blow to the neck and exsanguinated. The aorta is removed, freed from adhering tissue and divided into rings of a width of 1.5 mm. The rings are placed individually under an initial tension in 5 ml organ baths with Krebs-Henseleit solution which is at 37° C., is gassed with carbogen and has the following composition (in each case mM): sodium chloride: 119; potassium chloride: 4.8; calcium chloride dihydrate: 1; magnesium sulphate heptahydrate: 1.4; potassium dihydrogenphosphate: 1.2; sodium bicarbonate: 25; glucose: 10. The contractile force is determined with Statham UC2 cells, amplified and digitalized using A/D transducers (DAS-1802 HC, Keithley Instruments Munich), and recorded in parallel on linear recorders. To produce a contraction, phenylephrine is added to the bath cumulatively in increasing concentration. After several control cycles, the substance to be investigated is added in each further run in increasing dosage in each case, and the height of the contraction achieved is compared with the height of the contraction reached in the last preceding run. This is used to calculate the concentration needed to reduce the magnitude of the control value by 50% (IC50 value). The standard administration volume is 5 μl; the DMSO content in the bath solution corresponds to 0.1%.

AUCnorm [1] [kg·h/L]	CLblood [1] [L/h/kg]	MRT [1] [h]	half-life [1] [h]	MEC (minimum effective concentration) [2] [µM]	IC50 [3] [µM]	SMILES
3.5	0.37	5.6	4.4	0.03	0.082	CC1(C)C(=O)Nc2nc(-c3nn(Cc4ncccc4F)c4ncc(F)cc34)ncc21 [Example 6, 2-{5-Fluoro-1-[(3-fluoropyridin-2-yl)methyl]-1H-pyrazolo[3,4-b]pyridin-3-yl}-5,5-dimethyl-5,7-dihydro-6H-pyrrolo[2,3-d]pyrimidin-6-one]
0.93	0.93	1.3	1	0.3	0.034	CC1(C)C(=O)Nc2nc(-c3nn(Cc4ncccc4F)c4ncc(F)cc34)nc(N)c21 [Example 3, 4-Amino-2-{5-fluoro-1-[(3-fluoropyridin-2-yl)methyl]-1H-pyrazolo[3,4-b]pyridin-3-yl}-5,5-dimethyl-5,7-dihydro-6H-pyrrolo[2,3-d]pyrimidin-6-one]
13	0.13	7.9	6.1	1	0.234	CC1(C)C(=O)Nc2nc(-c3nn(Cc4ncccc4F)c4ncc(F)cc34)nnc21 [Example 2, 3-{5-Fluoro-1-[(3-fluoropyridin-2-yl)methyl]-1H-pyrazolo[3,4-b]pyridin-3-yl}-7,7-dimethyl-5,7-dihydro-6H-pyrrolo[2,3-e][1,2,4]triazin-6-one]
				3.0	2.54	CC1(C)C(=O)Nc2nc(-c3nn(Cc4c(F)cncc4F)c4ncc(F)cc34)nnc21 [Example 11, 3-{1-[(3,5-Difluoropyridin-4-yl)methyl]-5-fluoro-1H-pyrazolo[3,4-b]pyridin-3-yl}-7,7-dimethyl-5,7-dihydro-6H-pyrrolo[2,3-e][1,2,4]triazin-6-one]
				0.3	0.116	CC1(C)C(=O)Nc2nc(-c3nn(Cc4c(F)cncc4F)c4ncc(F)cc34)nc(N)c21 [Example 7, 4-Amino-2-{1-[(3,5-difluoropyridin-4-yl)methyl]-5-fluoro-1H-pyrazolo[3,4-b]pyridin-3-yl}-5,5-dimethyl-5,7-dihydro-6H-pyrrolo[2,3-d]pyrimidin-6-one]
				10	1.32	CC1(C)C(=O)Nc2nc(-c3nn(Cc4ncccn4)c4ncc(F)cc34)nnc21 [Example 1, 3-[5-Fluoro-1-(pyrimidin-2-ylmethyl)-1H-pyrazolo[3,4-b]pyridin-3-yl]-7,7-dimethyl-5,7-dihydro-6H-pyrrolo[2,3-e][1,2,4]triazin-6-one]
				0.1	0.099	CC1(C)C(=O)Nc2nc(-c3nn(Cc4cncnc4)c4ncc(F)cc34)nc(N)c21 [Example 21, 4-Amino-2-[5-fluoro-1-(pyrimidin-5-ylmethyl)-1H-pyrazolo[3,4-b]pyridin-3-yl]-5,5-dimethyl-5,7-dihydro-6H-pyrrolo[2,3-d]pyrimidin-6-one]
